Experiments:
[1] = compound: NC1(c2ccc(-c3nc4ccn5c(=O)[nH]nc5c4cc3-c3ccccc3)cc2)CCC1 [MK-2206]; test: relative viability (nuclei count vs DMSO), 5 days (fraction); higher = more cells survive
Summary of the method: (§1)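 Five library-drug doses, separated by factors of √10, were pinned into 1536-well plates holding lung cancer cell lines after an overnight stay at 37 °C. Cells were fixed, permeabilised and Hoechst-stained in one step after 5 days without medium change, then imaged at 4×. Viability compares treated-well with vehicle-well nuclei, counted in MetaXpress, as a median across plates. Passing plates had control CV below 25% and at least one doubling.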

[2] = compound: CS(=O)(=O)N1CCN(Cc2cc3nc(-c4cccc5[nH]ncc45)nc(N4CCOCC4)c3s2)CC1 [Pictilisib]; test: as above
Summary of the method: as §1

H3255
relative viability ([1]; 0.01 µM): 0.941 | relative viability ([1]; 0.03162 µM): 1.01 | relative viability ([1]; 0.3162 µM): 0.836 | relative viability ([1]; 1 µM): 0.826 | relative viability ([2]; 0.02 µM): 1.01 | relative viability ([2]; 0.06325 µM): 0.962 | relative viability ([2]; 0.6325 µM): 0.862 | relative viability ([2]; 1 µM, anchor plate): 0.46 | relative viability ([2]; 2 µM): 0.531

HARA
relative viability ([1]; 0.01 µM): 0.972 | relative viability ([1]; 0.03162 µM): 1.08 | relative viability ([1]; 0.3162 µM): 1.08 | relative viability ([1]; 1 µM): 0.832 | relative viability ([2]; 0.02 µM): 1.05 | relative viability ([2]; 0.06325 µM): 1.13 | relative viability ([2]; 0.6325 µM): 0.846 | relative viability ([2]; 1 µM, anchor plate): 0.401 | relative viability ([2]; 2 µM): 0.555

HCC-15
relative viability ([1]; 0.01 µM): 0.996 | relative viability ([1]; 0.03162 µM): 1.06 | relative viability ([1]; 0.3162 µM): 0.866 | relative viability ([1]; 1 µM): 0.923 | relative viability ([2]; 0.02 µM): 1.1 | relative viability ([2]; 0.06325 µM): 1.02 | relative viability ([2]; 0.6325 µM): 0.866 | relative viability ([2]; 1 µM, anchor plate): 0.737 | relative viability ([2]; 2 µM): 0.666

HCC-44
relative viability ([1]; 0.01 µM): 0.967 | relative viability ([1]; 0.03162 µM): 1.01 | relative viability ([1]; 0.3162 µM): 0.989 | relative viability ([1]; 1 µM): 0.723 | relative viability ([2]; 0.02 µM): 1.03 | relative viability ([2]; 0.06325 µM): 0.975 | relative viability ([2]; 0.6325 µM): 0.991 | relative viability ([2]; 1 µM, anchor plate): 0.612 | relative viability ([2]; 2 µM): 0.644

HCC-78
relative viability ([1]; 0.01 µM): 0.945 | relative viability ([1]; 0.03162 µM): 0.919 | relative viability ([1]; 0.3162 µM): 1.02 | relative viability ([1]; 1 µM): 0.638 | relative viability ([2]; 0.02 µM): 0.867 | relative viability ([2]; 0.06325 µM): 0.854 | relative viability ([2]; 0.6325 µM): 0.586 | relative viability ([2]; 1 µM, anchor plate): 0.219 | relative viability ([2]; 2 µM): 0.376

HCC-366
relative viability ([1]; 0.01 µM): 1.02 | relative viability ([1]; 0.03162 µM): 1.02 | relative viability ([1]; 0.3162 µM): 0.978 | relative viability ([1]; 1 µM): 0.98 | relative viability ([2]; 0.02 µM): 0.986 | relative viability ([2]; 0.06325 µM): 1.02 | relative viability ([2]; 0.6325 µM): 0.851 | relative viability ([2]; 1 µM, anchor plate): 0.159 | relative viability ([2]; 2 µM): 0.448

HCC-827
relative viability ([1]; 0.01 µM): 1.04 | relative viability ([1]; 0.03162 µM): 1.05 | relative viability ([1]; 0.3162 µM): 1.05 | relative viability ([1]; 1 µM): 0.932 | relative viability ([2]; 0.02 µM): 1.11 | relative viability ([2]; 0.06325 µM): 1.05 | relative viability ([2]; 0.6325 µM): 1.05 | relative viability ([2]; 1 µM, anchor plate): 0.939 | relative viability ([2]; 2 µM): 0.866

HOP-62
relative viability ([1]; 0.01 µM): 0.91 | relative viability ([1]; 0.03162 µM): 1.08 | relative viability ([1]; 0.3162 µM): 0.993 | relative viability ([1]; 1 µM): 0.918 | relative viability ([2]; 0.02 µM): 1.04 | relative viability ([2]; 0.06325 µM): 1.07 | relative viability ([2]; 0.6325 µM): 0.97 | relative viability ([2]; 1 µM, anchor plate): 0.743 | relative viability ([2]; 2 µM): 0.941

IA-LM
relative viability ([1]; 0.01 µM): 0.904 | relative viability ([1]; 0.03162 µM): 0.992 | relative viability ([1]; 0.3162 µM): 1.02 | relative viability ([1]; 1 µM): 0.691 | relative viability ([2]; 0.02 µM): 0.924 | relative viability ([2]; 0.06325 µM): 1.03 | relative viability ([2]; 0.6325 µM): 0.941 | relative viability ([2]; 1 µM, anchor plate): 0.373 | relative viability ([2]; 2 µM): 0.476

LC-2-ad
relative viability ([1]; 0.01 µM): 0.969 | relative viability ([1]; 0.03162 µM): 1.05 | relative viability ([1]; 0.3162 µM): 0.994 | relative viability ([1]; 1 µM): 0.876 | relative viability ([2]; 0.02 µM): 1.05 | relative viability ([2]; 0.06325 µM): 1.07 | relative viability ([2]; 0.6325 µM): 0.619 | relative viability ([2]; 1 µM, anchor plate): 0.496 | relative viability ([2]; 2 µM): 0.594

LCLC-97TM1
relative viability ([1]; 0.01 µM): 0.941 | relative viability ([1]; 0.03162 µM): 1.05 | relative viability ([1]; 0.3162 µM): 0.968 | relative viability ([1]; 1 µM): 0.829 | relative viability ([2]; 0.02 µM): 0.928 | relative viability ([2]; 0.06325 µM): 0.932 | relative viability ([2]; 0.6325 µM): 0.791 | relative viability ([2]; 1 µM, anchor plate): 0.199 | relative viability ([2]; 2 µM): 0.217

LCLC-103H
relative viability ([1]; 0.01 µM): 0.923 | relative viability ([1]; 0.03162 µM): 0.984 | relative viability ([1]; 0.3162 µM): 0.982 | relative viability ([1]; 1 µM): 1.11 | relative viability ([2]; 0.02 µM): 1.05 | relative viability ([2]; 0.06325 µM): 0.984 | relative viability ([2]; 0.6325 µM): 0.707 | relative viability ([2]; 1 µM, anchor plate): 0.625 | relative viability ([2]; 2 µM): 0.663

LK-2
relative viability ([1]; 0.01 µM): 0.944 | relative viability ([1]; 0.03162 µM): 1.09 | relative viability ([1]; 0.3162 µM): 1.05 | relative viability ([1]; 1 µM): 0.911 | relative viability ([2]; 0.02 µM): 0.938 | relative viability ([2]; 0.06325 µM): 0.926 | relative viability ([2]; 0.6325 µM): 0.656 | relative viability ([2]; 1 µM, anchor plate): 0.598 | relative viability ([2]; 2 µM): 0.415

LOU-NH91
relative viability ([1]; 0.01 µM): 0.983 | relative viability ([1]; 0.03162 µM): 0.999 | relative viability ([1]; 0.3162 µM): 1.02 | relative viability ([1]; 1 µM): 0.875 | relative viability ([2]; 0.02 µM): 1.02 | relative viability ([2]; 0.06325 µM): 0.987 | relative viability ([2]; 0.6325 µM): 0.874 | relative viability ([2]; 1 µM, anchor plate): 0.538 | relative viability ([2]; 2 µM): 0.681
